For experiment [1], the system named is Mus musculus. Put plainly: Protection from audiogenic seizure in the DBA/2 mouse 30 min after intraperitoneal administration. It counts as functional. Particulars: ip, 0.5 h.
For experiment [2], the target named is Glutamate receptor ionotropic, NMDA 1 (Rattus norvegicus, UniProt P35439). Put plainly: Inhibition of the binding of [3H]L-689,560 ([3H]-4) to the strychnine-insensitive glycine site on rat brain membranes. The class given is cell membranes, Membrane.
The species entered for the next experiment is Rattus norvegicus. The experiment can be described thus: Blockade of NMDA-induced depolarizations on rat cortical slices. It counts as functional.
Experiment [3] deals with Mus musculus. Put plainly: Protection from audiogenic seizure in the DBA/2 mouse 30 min after oral administration. The class given is functional. As to conditions: 0.5 h.
The subject of experiment [4] is Mus musculus. Put plainly: Protection from audiogenic seizure in the DBA/2 mouse 10 min after intraperitoneal administration. Particulars: ip. The class given is functional.

In general, ED50 refers to the midpoint of the dose-response relation. In general, IC50 refers to the concentration that gives 50% inhibition.

As for `O=C(O)c1cc(O)c2c(I)cc(Cl)cc2n1`, the ED50 in the experiment on Mus musculus [1] is over 250 mg/kg. In addition, the IC50 in experiment [2] was determined as 0.014 µM. The Kb in the experiment listed under Rattus norvegicus was 0.41 µM.

Turning to `Oc1nc2cc(Cl)ccc2c(O)c1-c1cccc(Cc2ccsc2)c1`, the median effective dose (ED50) is 1.5 mg/kg in the experiment on Mus musculus [1] and 5.1 mg/kg in the experiment with Mus musculus [3]. The compound further came in with a half-inhibitory concentration (IC50) in experiment [2] of 0.0023 µM. In addition, in the experiment filed under Rattus norvegicus, the Kb was 0.019 µM.

Turning to `O=C(Nc1ccccc1)N[C@H]1C[C@H](C(=O)O)Nc2cc(Cl)cc(Cl)c21`, the ED50 in the experiment on Mus musculus [1] was over 100 mg/kg. Also, in experiment [2], the half-inhibitory concentration (IC50) is 0.004 µM. In addition, in the experiment filed under Rattus norvegicus, the Kb is 0.11 µM.

For `COc1ccc(Cc2cccc(-c3c(O)c4ccc(Cl)cc4[nH]c3=O)c2)cc1`, the ED50 in the experiment on Mus musculus [1] turned out to be 0.7 mg/kg; in the experiment on Mus musculus [3] it was 0.9 mg/kg. The IC50 in experiment [2] was found to be 0.0045 µM. The compound also came in with a Kb in the experiment filed under Rattus norvegicus of 0.025 µM.

For the compound `O=C(O)CCc1c(C(=O)O)[nH]c2cc(Cl)cc(Cl)c12`, the median effective dose (ED50) in the experiment on Mus musculus [1] was over 100 mg/kg. The compound also gave an IC50 in experiment [2] of 0.069 µM. In the experiment filed under Rattus norvegicus, this compound showed a Kb of 1.32 µM.

`O=c1[nH]c2cc(Cl)ccc2c(O)c1-c1ccccc1`: the 50% effective dose (ED50) with Mus musculus [1] worked out at 4.5 mg/kg; with Mus musculus [3], 7.6 mg/kg. In experiment [2], this compound came in with an IC50 of 0.17 µM. This compound also displayed a Kb in the experiment listed under Rattus norvegicus of 0.88 µM.

Turning to `COCOc1ccc(Cc2cccc(-c3c(O)nc4cc(Cl)ccc4c3O)c2)cc1`, the median effective dose (ED50) worked out at 0.5 mg/kg in the experiment on Mus musculus [1] and 0.9 mg/kg in the experiment on Mus musculus [3]. Also, the concentration for half-maximal inhibition (IC50) in experiment [2] is 0.0022 µM. The compound also showed a Kb in the experiment filed under Rattus norvegicus of 0.0032 µM.

Take `O=c1[nH]c2cc(Cl)ccc2c(O)c1-c1cccc(Oc2ccccc2)c1`: the ED50 in the experiment with Mus musculus [1] and in the experiment on Mus musculus [3] was 0.9 mg/kg in each case. The same compound came in with an IC50 in experiment [2] of 0.002 µM. For the same compound, the Kb in the experiment filed under Rattus norvegicus worked out at 0.028 µM.

For `Oc1nc2cc(Cl)ccc2c(O)c1-c1cccc(Oc2ccsc2)c1`, the ED50 in the experiment on Mus musculus [1] and in the experiment on Mus musculus [3] was 0.8 mg/kg each time. Besides, the IC50 in experiment [2] was 0.0014 µM. The compound further came in with a Kb in the experiment filed under Rattus norvegicus of 0.005 µM.

For `Oc1nc2cc(Cl)ccc2c(O)c1-c1cccc(Cc2ccccc2)c1`, the ED50 was 3.9 mg/kg in the experiment with Mus musculus [3] and 1.3 mg/kg in the experiment with Mus musculus [4]. The Kb in the experiment filed under Rattus norvegicus was determined as 0.087 µM.

The record behind these values is ChEMBL document CHEMBL1127503, “3'-(Arylmethyl)- and 3'-(aryloxy)-3-phenyl-4-hydroxyquinolin-2(1H)-ones: orally active antagonists of the glycine site on the NMDA receptor” (J Med Chem, 1994).
